Values belong to the molecule of their own block, whether it stands above or below them.
Columns and labels:
Format in all cases: in vivo, mouse (male Balb/c)
salivary gland [1] = assay: Salivary fluid secretion after subcutaneous bolus administration; conditions: mice; for dose at which statistically significant acceleration of salivary fluid secretion was attained / time after administration at which secretion amount of salivary and tear fluid reached maximum: s.c. bolus; for time after administration at which secretion amount of salivary and tear fluid reached maximum: every dose
Procedure: (§1) Male Balb/c mice were used in the test.
(§2) The compound A was dissolved in physiological saline to a concentration of 1, 3, 10, 30 or 100 mg/5 ml, and 5 ml/kg of the drug solution was administered under the dorsal skin. Secreted amounts of salivary and tear fluid were measured just before the administration of compound A and 10, 20, 30, 40 and 50 minutes after the administration. The sweating action was measured 10 minutes after the administration. Also, the growth acceleration action was measured 6 hours after the administration.
as §2, with “Pilocarpine was dissolved” for “The compound A was dissolved”, “concentration of 0.03, 0.1, 0.3, 1, 3 or 10 mg/5 ml, or cevimeline to a concentration of 0.3, 1, 3,” for “concentration of 1, 3,”, “administration of pilocarpine or cevimeline and 10,” for “administration of compound A and 10,”
(§3) The mouth of a mouse was wiped with a cotton ball whose weight had been measured in advance, and the incremental weight was used as the amount of salivary fluid. Also at the same time, a thread for tear fluid measurement (Zone Quick; Menicon) used on the Schirmer test was inserted into the lower eyelid conjunctival sac, and the length of colored part was measured and used as the amount of tear fluid. From the measurement results, area under the secreted amount-versus-time curve (AUC) was calculated.
(§4) All of the test results were expressed as fold increases of the reactions of the drug-administered group versus those of the vehicle-administered group, and comparison between the drug-administered groups and the vehicle-administered group was carried out using Dunnett's t-test. P<0.05 was considered significant. Results

sweat gland = assay: Sweating (number of activated sweat glands on footpad) after subcutaneous bolus administration; conditions: mice; for dose at which statistically significant sweating was found: s.c. bolus
Procedure: as §1, §2
as §2, with “Pilocarpine was dissolved” for “The compound A was dissolved”, “concentration of 0.03, 0.1, 0.3, 1, 3 or 10 mg/5 ml, or cevimeline to a concentration of 0.3, 1, 3,” for “concentration of 1, 3,”, “administration of pilocarpine or cevimeline and 10,” for “administration of compound A and 10,”
The footpad of right hind paw of a mouse anesthetized with diethyl ether was wiped with absorbent cotton, and then 20 μl of each of 5 mg/ml iodine-ethanol solution and 50 mg/ml starch-mineral oil suspension was applied thereto. The number of black spots on footpad was counted and used as the number of activated sweat glands. In the case of the subcutaneous bolus administration test, the number of activated sweat glands 10 minutes after the administration of compound A was measured. In the case of the subcutaneous continuous administration, area under the number of activated sweat glands-versus-time curve (AUC) was calculated.
as §4

salivary gland [2] = assay: Salivary fluid secretion during subcutaneous continuous administration (osmotic pump); conditions: mice; for Salivary fluid: AUC of secreted amount
Procedure: as §1
The compound A was dissolved in physiological saline to a concentration of 0.625, 1.25, 2.5, 5.0, 10 or 20 mg/200 μl, and filled each pump (Alzet mini-osmotic pump 2001D, 8 μl/h, 1 day; DURECT Corporation) with about 200 μl portions It means, that is, each pump releases at a rate of 0.025, 0.05, 0.1, 0.2, 0.4 or 0.8 mg compound A/h, respectively. About 5 mm of dorsal epidermis of a mouse anesthetized with diethyl ether was incised, the osmotic pump already filled with the compound A was subcutaneously implanted, and then the skin was stitched. Secreted amounts of salivary and tear fluid and sweating were periodically measured from just before the implantation of pump until 32 hours after the administration. The ornithine decarboxylase activity was measured 10 hours after the implantation.
Pilocarpine was dissolved in physiological saline to a concentration of 0.039, 0.078, 0.16 or 0.31 mg/200 μl, or cevimeline to a concentration of 0.16, 0.31, 0.63 or 1.3 mg/200 μl, and filled the osmotic pump (Alzet mini-osmotic pump 2001 D, 8 μl/h, 1 day; DURECT Corporation) with about 200 μl portions. It means, that is, each pump releases at a rate of 0.00156, 0.00312, 0.0064 or 0.0124 mg/h (pilocarpine) or 0.0064, 0.0124, 0.0252 or 0.05 mg/h (cevimeline). About 5 mm of dorsal epidermis of a mouse anesthetized with diethyl ether was incised, the osmotic pump already filled with pilocarpine or cevimeline was subcutaneously implanted, and then the skin was stitched. Secreted amounts of salivary and tear fluid and sweating were periodically measured from just before the implantation of pump until 32 hours after the administration. The ornithine decarboxylase activity was measured 10 hours after the implantation.
as §3, §4

[3] = test system: ornithine decarboxylase (ODC) activity of extra-orbital lacrimal gland; assay: Ornithine decarboxylase activity of extra-orbital lacrimal gland after subcutaneous bolus administration; conditions: mice
Procedure: Male Balb/c mice were used in the test. […] Also, the growth acceleration action was measured 6 hours after the administration. […] Also, the growth acceleration action was measured 6 hours after the administration. […] Thus, it can be easily analogized that the ODC activity becomes a useful index of cell growth and function of the exocrine gland. Accordingly, the ability of each drug to activate glandular tissue was evaluated by measuring ODC activity of parotid salivary gland and extra-orbital lacrimal gland. The amount of ^14CO2 formed from L-^14C-ornithine was used as the index of ODC activity. A mouse anesthetized with diethyl ether was sacrificed by bleeding, and left and right parotid salivary glands and extra-orbital lacrimal glands were isolated. After removing the attached connective tissue and fat, the isolated glandular tissues homogenized in 1.5 ml of a homogenate buffer (25 mM Tris-HCl buffer (pH 7.4) containing 0.1 mM ethylenediaminetetraacetic acid, 0.4 mM pyridoxal phosphate, 5 mM dithiothreitol and 0.1% Brij 35®) using a Potter type homogenizer and then centrifuged at 4° C., 15,000 g for 30 minutes, and the supernatant was used as the enzyme fraction. […] The ^14CO2 generated by the reaction was captured by 150 μl of 1 N NaOH soaked in a glass filter. Radioactivity of the ^14CO2 captured on the glass filter was detected using a liquid scintillation counter. The enzyme activity (pmol ^14CO2/mg protein/hour) was calculated from the measured results. All of the test results were expressed as fold increases of the reactions of the drug-administered group versus those of the vehicle-administered group, and comparison between the drug-administered groups and the vehicle-administered group was carried out using Dunnett's t-test. P<0.05 was considered significant. Results

lacrimal gland = assay: Tear fluid secretion after subcutaneous bolus administration; conditions: mice; for dose at which statistically significant acceleration of tear fluid secretion was attained: s.c. bolus
Procedure: as §1, §2
as §2, with “Pilocarpine was dissolved” for “The compound A was dissolved”, “concentration of 0.03, 0.1, 0.3, 1, 3 or 10 mg/5 ml, or cevimeline to a concentration of 0.3, 1, 3,” for “concentration of 1, 3,”, “administration of pilocarpine or cevimeline and 10,” for “administration of compound A and 10,”
as §3, §4

[4] = s.c. bolus 0.03 mg/kg, 10 minutes after administration
[5] = s.c. bolus 0.1 mg/kg, 10 minutes after administration
[6] = s.c. bolus 0.3 mg/kg, 10 minutes after administration
[7] = s.c. bolus 1 mg/kg, 10 minutes after administration (Table 3)
[8] = 10 minutes after administration
[9] = s.c. osmotic pump 0.16 mg (0.0064 mg/h)
[10] = s.c. osmotic pump 0.31 mg (0.0124 mg/h)
[11] = s.c. bolus 0.3 mg/kg, 10 minutes after administration (Table 4)
[12] = s.c. bolus 1 mg/kg, 10 minutes after administration (Table 4)
[13] = s.c. bolus 3 mg/kg, 10 minutes after administration (Table 4)
[14] = s.c. bolus 10 mg/kg, 10 minutes after administration (Table 4)

dose at which statistically significant sweating was found (sweat gland): 1 mg/kg
SMILES: CC[C@@H]1C(=O)OC[C@@H]1Cc1cncn1C [pilocarpine]
Salivary fluid (salivary gland [1]; [4]): 1.2 ± 0.15 fold increase vs. the vehicle group
Salivary fluid (salivary gland [1]; [5]): 1.8 ± 0.23 fold increase vs. the vehicle group
Salivary fluid (salivary gland [1]; [6]): 1.7 ± 0.15 fold increase vs. the vehicle group
Salivary fluid (salivary gland [1]; [7]): 2.0 ± 0.18 fold increase vs. the vehicle group
dose at which statistically significant acceleration of salivary fluid secretion was attained (salivary gland [1]; [8]): 0.1 mg/kg
time after administration at which secretion amount of salivary and tear fluid reached maximum (salivary gland [1]): 10 min
sweating (sweat gland; [6]): 1.1 ± 0.16 fold increase vs. the vehicle group
sweating (sweat gland; s.c. bolus 1 mg/kg, 10 minutes after administration): 3.1 ± 0.32 fold increase vs. the vehicle group
sweating (sweat gland; s.c. bolus 3 mg/kg, 10 minutes after administration (Table 3)): 4.2 ± 0.29 fold increase vs. the vehicle group
dose at which salivary fluid secretion acceleration action reached maximum (salivary gland [2]; s.c. continuous administration): 0.16 mg
Salivary fluid (salivary gland [2]; s.c. osmotic pump 0.039 mg (0.00156 mg/h)): 1.1 ± 0.04 fold increase vs. vehicle group
Salivary fluid (salivary gland [2]; s.c. osmotic pump 0.078 mg (0.00312 mg/h)): 1.5 ± 0.08 fold increase vs. vehicle group
Salivary fluid (salivary gland [2]; [9]): 2.9 ± 0.14 fold increase vs. vehicle group
Salivary fluid (salivary gland [2]; [10]): 2.8 ± 0.24 fold increase vs. vehicle group
Glandular cell growth Lacrimal gland ([3]; s.c. bolus 1 mg/kg, ODC activity 6 hours after administration): 0.69 ± 0.09 fold increase vs. the vehicle group
Glandular cell growth Lacrimal gland ([3]; s.c. bolus 3 mg/kg, ODC activity 6 hours after administration): 0.95 ± 0.23 fold increase vs. the vehicle group
Glandular cell growth Lacrimal gland ([3]; s.c. bolus 10 mg/kg, ODC activity 6 hours after administration (Table 3)): 2.8 ± 0.61 fold increase vs. the vehicle group
Tear fluid (lacrimal gland; [4]): 0.65 ± 0.19 fold increase vs. the vehicle group
Tear fluid (lacrimal gland; [5]): 0.80 ± 0.24 fold increase vs. the vehicle group
Tear fluid (lacrimal gland; [6]): 1.1 ± 0.14 fold increase vs. the vehicle group
Tear fluid (lacrimal gland; [7]): 2.7 ± 0.40 fold increase vs. the vehicle group
dose at which statistically significant acceleration of tear fluid secretion was attained (lacrimal gland; [8]): 1 mg/kg

dose at which statistically significant sweating was found (sweat gland): 10 mg/kg
SMILES: CC1OC2(CS1)CN1CCC2CC1 (stereo not shown) [cevimeline]
Salivary fluid (salivary gland [1]; [11]): 1.2 ± 0.13 fold increase vs. the vehicle group
Salivary fluid (salivary gland [1]; [12]): 2.0 ± 0.22 fold increase vs. the vehicle group
Salivary fluid (salivary gland [1]; [13]): 2.1 ± 0.42 fold increase vs. the vehicle group
Salivary fluid (salivary gland [1]; [14]): 3.1 ± 0.50 fold increase vs. the vehicle group
dose at which statistically significant acceleration of salivary fluid secretion was attained (salivary gland [1]; [8]): 3 mg/kg
time after administration at which secretion amount of salivary and tear fluid reached maximum (salivary gland [1]): 10 min
sweating (sweat gland; [13]): 1.5 ± 0.29 fold increase vs. the vehicle group
sweating (sweat gland; [14]): 2.5 ± 0.40 fold increase vs. the vehicle group
sweating (sweat gland; s.c. bolus 30 mg/kg, 10 minutes after administration (Table 4)): 3.1 ± 0.57 fold increase vs. the vehicle group
dose showing statistically significant salivary fluid secretion acceleration (salivary gland [2]; s.c. continuous administration, cumulative quantity vs vehicle group): 0.63 mg
Salivary fluid (salivary gland [2]; [9]): 0.98 ± 0.10 fold increase vs. the solvent group
Salivary fluid (salivary gland [2]; [10]): 1.0 ± 0.12 fold increase vs. the solvent group
Salivary fluid (salivary gland [2]; s.c. osmotic pump 0.63 mg (0.0252 mg/h)): 1.5 ± 0.11 fold increase vs. the solvent group
Salivary fluid (salivary gland [2]; s.c. osmotic pump 1.25 (0.05 mg/h)): 1.7 ± 0.17 fold increase vs. the solvent group
Glandular cell growth Lacrimal gland ([3]; s.c. bolus 10 mg/kg, ODC activity 6 hours after administration (Table 4)): 1.2 ± 0.90 fold increase vs. the vehicle group
Glandular cell growth Lacrimal gland ([3]; s.c. bolus 30 mg/kg, ODC activity 6 hours after administration (Table 4)): 1.2 ± 0.52 fold increase vs. the vehicle group
Glandular cell growth Lacrimal gland ([3]; s.c. bolus 100 mg/kg, ODC activity 6 hours after administration (Table 4)): 1.7 ± 0.79 fold increase vs. the vehicle group
Tear fluid (lacrimal gland; [11]): 1.1 ± 0.14 fold increase vs. the vehicle group
Tear fluid (lacrimal gland; [12]): 1.1 ± 0.14 fold increase vs. the vehicle group
Tear fluid (lacrimal gland; [13]): 1.1 ± 0.16 fold increase vs. the vehicle group
Tear fluid (lacrimal gland; [14]): 3.6 ± 0.88 fold increase vs. the vehicle group
dose at which statistically significant acceleration of tear fluid secretion was attained (lacrimal gland; [8]): 10 mg/kg
